Experimental findings from US4505929A, “Sulfur-substituted diphenyl ethers having antiviral activity” (The Dow Chemical Company, priority 1982, dated 1985) are described below.

In brackets after ≈: the same amount, converted by molar mass.

What all share (format): cell-based
Data set [1] relates to rhinovirus type 1A (RV-1A). The data set is described as follows: Tissue culture antiviral test (HeLa cells), RV-1A. As to conditions: Enterovirus, 48 and 72 hours post-treatment, read-out: Lowest concentration necessary to cause a 50 percent reduction in cytopathic effect, RV-1A. The protocol: (§1) Monolayered HeLa cells in 16 millimeter (mm) tissue culture dishes were treated with 1 ml of culture medium (Eagles medium supplemented with fetal calf serum) containing subject compound at an appropriate concentration or containing no compound at all. Culture media such as those described herein are more fully described in standard texts, as for example, Kuchler's Biochemical Methods in Cell Culture and Virology, Dowden, Hutchinson and Ross, Inc., Stroudsberg, PA (1977). Following treatment, cells were challenged with 0.05 ml of rhinovirus type 1A (RV-1A), rhinovirus type 2 (RV-2) or Coxsackie A21 virus (Cox A21) in culture medium. Some of the compounds were also tested against rhinovirus type 5 (RV-5), rhinovirus type 8 (RV-8) or rhinovirus type 64 (RV-64). Cell controls received no viruses.
(§2) ^xx Lowest concentration of the compound (μg/ml) necessary to caus
(§3) a 50 percent reduction in cytopathic effect.
On the technique in general: Protection from cytopathic effect is a common read-out in antiviral testing.

Data set [2] can be described thus: Cytotoxicity to HeLa cells in tissue culture testing. As to conditions: human, concentration found to be toxic to the cell, observed at 48 and 72 hours, read-out: Cytotoxicity. The protocol:
as §1
^x Cytotoxicity figures represent the concentration of the compound,
micrograms/milliliter (μg/ml) found to be toxic to the cell.
means "approximately "; "<<" "considerably less than " and "G.I." means

Data set [3] deals with rhinovirus type 5 (RV-5). The data set is described as follows: Tissue culture antiviral test (HeLa cells), RV-5. As to conditions: Enterovirus, 48 and 72 hours post-treatment, read-out: Lowest concentration necessary to cause a 50 percent reduction in cytopathic effect, RV-5. As for the experimental part:
as §1, §2, §3

Data set [4] concerns rhinovirus type 2 (RV-2). Description: Tissue culture antiviral test (HeLa cells), RV-2. As to conditions: Enterovirus, 48 and 72 hours post-treatment, read-out: Lowest concentration necessary to cause a 50 percent reduction in cytopathic effect, RV-2. As for the experimental part:
as §1, §2, §3

Data set [5] deals with Coxsackie A21 virus (Cox A21). Description: Tissue culture antiviral test (HeLa cells), Cox A21. As to conditions: 48 and 72 hours post-treatment, read-out: Lowest concentration necessary to cause a 50 percent reduction in cytopathic effect, Cox A21. As for the experimental part: as §1, §2, §3
Data set [6] has as its system rhinovirus type 64 (RV-64). Description: Tissue culture antiviral test (HeLa cells), RV-64. As to conditions: Enterovirus, 48 and 72 hours post-treatment, read-out: Lowest concentration necessary to cause a 50 percent reduction in cytopathic effect, RV-64. As for the experimental part:
as §1, §2, §3

In data set [7] the test system is rhinovirus type 8 (RV-8). The data set is described as follows: Tissue culture antiviral test (HeLa cells), RV-8. As to conditions: Enterovirus, 48 and 72 hours post-treatment, read-out: Lowest concentration necessary to cause a 50 percent reduction in cytopathic effect, RV-8. As for the experimental part:
as §1, §2, §3

As for `CS(=O)(=O)c1ccc(Oc2ccc(OCC#N)cc2)cc1` [Example 23, (4-(4-(Methylsulfonyl)phenoxy)phenoxy)acetonitrile], the EC50 in data set [1] worked out at 2.5 µg/mL (≈ 8.24 µM); in data set [3] it was 5 µg/mL (≈ 16.5 µM); in data set [4], 5 µg/mL (≈ 16.5 µM); in data set [5], 2.5 µg/mL (≈ 8.24 µM); in data set [6], 10 µg/mL (≈ 33 µM); in data set [7], 5 µg/mL (≈ 16.5 µM). The MCC in data set [2] came out at 10 µg/mL.
For the compound `CS(=O)(=O)c1ccc(Oc2ccc(Cc3ccccc3)cc2)cc1` [Example 20, 1-(4-(Methylsulfonyl)phenoxy)-4-(phenylmethyl)benzene], the EC50 in data set [1] was determined as 2.5 µg/mL (≈ 7.39 µM); in data set [3], 5 µg/mL (≈ 14.8 µM); in data set [4] it was 1.25 µg/mL (≈ 3.69 µM); in data set [5], 2.5 µg/mL (≈ 7.39 µM); in data set [6], 2.5 µg/mL (≈ 7.39 µM); in data set [7], 5 µg/mL (≈ 14.8 µM). Also, the MCC in data set [2] came to 5 µg/mL.
